From US11053253B2, “Macrocyclic compounds for treatment of medical disorders” (Achillion Pharmaceuticals, Inc., priority 2017, dated 2021)

Target: Human Factor D (Homo sapiens (Human), UniProt P00746)
Assay: Human Factor D Assay
Format: biochemical
Settings: Human Factor D 80 nM, substrate Z-L-Lys-SBzl, DTNB, A405; read-out: IC50 (Stars)
Protocol: Example 2. Human Factor D Assay
Human Factor D (purified from human serum, Complement Technology, Inc.) at 80 nM final concentration is incubated with test compound at various concentrations for 5 min at room temperature in 50 mM Tris, 1M NaCl, pH 7.5. A synthetic substrate Z-L-Lys-SBzl and DTNB (Ellman's reagent) are added to final concentrations of 100 µM each. Absorbance at 405 nm (A405) is recorded at 30 second intervals for 30 minutes using a microplate spectrophotometer. IC50 values are calculated by nonlinear regression of Complement Factor D reaction rates as a function of test compound concentration.

Chain of Human Factor D (P00746 26-253): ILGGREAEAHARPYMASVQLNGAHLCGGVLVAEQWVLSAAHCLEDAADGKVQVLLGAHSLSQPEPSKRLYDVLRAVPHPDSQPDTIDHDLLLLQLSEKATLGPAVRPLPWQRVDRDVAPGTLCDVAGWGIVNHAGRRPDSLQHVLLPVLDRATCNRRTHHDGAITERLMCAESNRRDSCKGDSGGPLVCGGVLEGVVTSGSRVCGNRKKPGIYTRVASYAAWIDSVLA

Compound | IC50
CC(=O)c1nn(CC(=O)N2[C@H]3C[C@]4(C[C@@H]24)Cn2cc(nn2)COCc2ccc(Br)nc2NC3=O)c2ccc(-c3cnc(C)nc3)cc12 [Compound T-18, (31R,33S,35R,Z)-32-(2-(3-acetyl-5-(2-methylpyrimidin-5-yl)-1H-indazol-1-yl)acetyl)-66-bromo-11H-8-oxa-32,5-diaza-6(2,3)-pyridina-1(1,4)-triazola-3(5,3)-bicyclo[3.1.0]hexanacyclononaphan-4-one] | < 1000 nM
CC(=O)c1nn(CC(=O)N2[C@H]3C[C@@]4(C=CCCCCN(C)C(=O)Cc5ccc(Br)nc5NC3=O)C[C@@H]24)c2ccc(-c3cnc(C)nc3)cc12 [Compound T-19, (41R,43S,45R)-42-(2-(3-acetyl-5-(2-methylpyrimidin-5-yl)-1H-indazol-1-yl)acetyl)-16-bromo-11-methyl-42,2,11-triaza-1(2,3)-pyridina-4(3,5)-bicyclo[3.1.0]hexanacyclotridecaphan-5-ene-3,12-dione] | < 1000 nM
CC(=O)c1nn2c3c(cc(-c4cnc(C)nc4)cc13)CCC=CCCCC(=O)NC[C@@]13C[C@@H](C(=O)Nc4nc(Br)ccc4C)N(C(=O)C2)[C@@H]1C3 [Compound T-20, (41R,43S,45R)-13-acetyl-N-(6-bromo-3-methylpyridin-2-yl)-15-(2-methylpyrimidin-5-yl)-3,7-dioxo-11H-42,6-diaza-1(1,7)-indazola-4(2,5)-bicyclo[3.1.0]hexanacyclotetradecaphan-11-ene-43-carboxamide] | < 1000 nM
CC(=O)c1nn2c3c(cc(-c4cnc(C)nc4)cc13)CC=CCCCC(=O)NC[C@@]13C[C@@H](C(=O)Nc4nc(Br)ccc4C)N(C(=O)C2)[C@@H]1C3 [Compound T-21, (41R,43S,45R)-13-acetyl-N-(6-bromo-3-methylpyridin-2-yl)-15-(2-methylpyrimidin-5-yl)-3,7-dioxo-11H-42,6-diaza-1(1,7)-indazoia-4(2,5)-bicyclo[3.1.0]hexanacyclotridecaphan-11-ene-43-carboxamide] | < 1000 nM
CC(=O)N[C@H]1CC=CCOCc2ccc(Br)nc2NC(=O)[C@@H]2C[C@@]3(CNC1=O)C[C@H]3N2C(=O)Cn1nc(C(C)=O)c2cc(-c3cnc(C)nc3)ccc21 [Compound T-22, N-((41R,43S,45R,8S)-42-(2-(3-acetyl-5-(2-methylpyrimidin-5-yl)-1H-indazol-1-yl)acetyl)-16-bromo-3,7-dioxo-13-oxa-42,2,6-triaza-1(2,3)-pyridina-4(3,5)-bicyclo[3.1.0]hexanacyclotetradecaphan-10-en-8-yl)acetamide] | < 1000 nM
CC(=O)c1nn2c3c(cc(-c4cnc(C)nc4)cc13)CCCCCCCCOC[C@@]13C[C@@H](C(=O)Nc4nc(Br)ccc4C)N(C(=O)C2)[C@@H]1C3 [Compound T-23, (41R,43S,45S)-13-acetyl-N-(6-bromo-3-methylpyridin-2-yl)-15-(2-methylpyrimidin-5-yl)-3-oxo-11H-6-oxa-42-aza-1(1,7)-indazola-4(2,5)-bicyclo[3.1.0]hexanacyclotetradecaphane-43-carboxamide] | < 1000 nM
CC(=O)c1nn2c3c(cc(-c4cnc(C)nc4)cc13)CCCCCCCCCOC[C@@]13C[C@@H](C(=O)Nc4nc(Br)ccc4C)N(C(=O)C2)[C@@H]1C3 [Compound T-24, (41R,43S,45S)-13-acetyl-N-(6-bromo-3-methylpyridin-2-yl)-15-(2-methylpyrimidin-5-yl)-3-oxo-11H-6-oxa-42-aza-1(1,7)-indazola-4(2,5)-bicyclo[3.1.0]hexanacyclopentadecaphane-43-carboxamide] | < 1000 nM
CC(=O)c1nn(CC(=O)N2[C@H]3C[C@]4(C[C@@H]24)Cn2cc(nn2)COCc2ccc(Br)nc2NC3=O)c2cnccc12 [Compound T-27, (31R,33S,35R,Z)-32-(2-(3-acetyl-1H-pyrazolo[3,4-c]pyridin-1-yl)acetyl)-66-bromo-11H-8-oxa-32,5-diaza-6(2,3)-pyridina-1(1,4)-triazola-3(5,3)-bicyclo[3.1.0]hexanacyclononaphan-4-one] | < 1000 nM
CC(=O)c1nn2c3c(cc(-c4cnc(C)nc4)cc13)CCCCCCC=CCc1ccc(Br)nc1NC(=O)[C@@H]1C[C@@]3(C)C[C@H]3N1C(=O)C2 [Compound T-37] | < 1000 nM
CC(=O)c1nn(CC(=O)N2[C@H]3C[C@@]4(COCCCCCc5ccc(Br)nc5NC3=O)C[C@@H]24)c2ccc(-c3cnc(C)nc3)cc12 [Compound T-38] | < 1000 nM
CC(=O)c1nn(CC(=O)N2[C@H]3C[C@@]4(COCCCCCCc5ccc(Br)nc5NC3=O)C[C@@H]24)c2ccc(-c3cnc(C)nc3)cc12 [Compound T-39] | < 1000 nM
CC(=O)c1nn(CC(=O)N2[C@H]3C[C@@]4(COCCCCCCCc5ccc(Br)nc5NC3=O)C[C@@H]24)c2ccc(-c3cnc(C)nc3)cc12 [Compound T-40] | < 1000 nM
CC(=O)c1nn(CC(=O)N2[C@H]3C[C@@]4(COCCCCCCCc5ccc(Br)nc5NC3=O)C[C@@H]24)c2cnc(-c3cnc(C)nc3)cc12 [Compound T-41] | < 1000 nM
CC(=O)c1nn(CC(=O)N2[C@H]3C[C@@]4(COCCCCCCc5ccc(Br)nc5NC3=O)C[C@@H]24)c2cnc(-c3cnc(C)nc3)cc12 [Compound T-42] | < 1000 nM
CC(=O)c1nn(CC(=O)N2[C@H]3C[C@@]4(C=CCCCCCCc5ccc(Br)nc5NC3=O)C[C@@H]24)c2cnc(-c3cnc(C)nc3)cc12 [Compound T-43] | < 1000 nM
CC(=O)c1nn(CC(=O)N2[C@H]3C[C@@]4(COC/C=C/COCc5ccc(Br)nc5NC3=O)C[C@@H]24)c2cnc(-c3cnc(C)nc3)cc12 [Compound T-44] | < 1000 nM
CC(=O)c1nn(CC(=O)N2[C@H]3C[C@@]4(COC/C=C\COCc5ccc(Br)nc5NC3=O)C[C@@H]24)c2cnc(-c3cnc(C)nc3)cc12 [Compound T-45] | < 1000 nM
CC(=O)c1nn(CC(=O)N2[C@H]3C[C@@]4(CCCCCCCCc5ccc(Br)nc5NC3=O)C[C@@H]24)c2cnc(-c3cnc(C)nc3)cc12 [Compound T-46] | < 1000 nM
CC(=O)c1nn(CC(=O)N2[C@H]3C[C@@]4(C=CCCC5=NN=C(Cc6ccc(Br)nc6NC3=O)O5)C[C@@H]24)c2cnc(-c3cnc(C)nc3)cc12 [Compound T-47] | < 1000 nM

Compound | IC50
CC(=O)c1nn(CC(=O)N2[C@H]3C[C@@]4(C=CCCCCCCc5ccc(Br)nc5NC3=O)C[C@@H]24)c2ccc(-c3cnc(C)nc3)cc12 [Compound T-48] | < 1000 nM
CC(=O)c1nn2c3c(cc(-c4cnc(C)nc4)cc13)CCCCCCC=Cc1cn(nn1)C[C@@]13C[C@@H](C(=O)Nc4nc(Br)ccc4C)N(C(=O)C2)[C@@H]1C3 [Compound T-49] | < 1000 nM
CC(=O)c1nn2c3c(cc(-c4cnc(C)nc4)cc13)C=CCCCCC(=O)NC[C@@]13C[C@@H](C(=O)Nc4nc(C(F)(F)F)ccc4C)N(C(=O)C2)[C@@H]1C3 [Compound T-51] | < 1000 nM
CC(=O)c1nn2c3c(cc(-c4cnc(C)nc4)cc13)CCCCCCCCc1cn(nn1)C[C@@]13C[C@@H](C(=O)Nc4nc(Br)ccc4C)N(C(=O)C2)[C@@H]1C3 [Compound T-53] | < 1000 nM
CC(=O)c1nn(CC(=O)N2[C@H]3C[C@]4(C[C@@H]24)CN(C)CCCCC=CCc2ccc(Br)nc2NC3=O)c2cnc(-c3cnc(C)nc3)cc12 [Compound T-56] | < 1000 nM
CC(=O)c1nn(CC(=O)N2[C@H]3C[C@]4(C[C@@H]24)CN(C)CCCC=CCc2ccc(Br)nc2NC3=O)c2cnc(-c3cnc(C)nc3)cc12 [Compound T-57] | < 1000 nM
CC(=O)c1nn2c3c(cc(-c4cnc(C)nc4)cc13)C=CCCCCCN(C)C[C@@]13C[C@@H](C(=O)Nc4nc(Br)ccc4C)N(C(=O)C2)[C@@H]1C3 [Compound T-58] | < 1000 nM
CC(=O)c1nn(CC(=O)N2[C@H]3C[C@@]4(C=CCCCCCN(C)Cc5ccc(Br)nc5NC3=O)C[C@@H]24)c2c(CF)cc(-c3cnc(C)nc3)cc12 [Compound T-59] | < 1000 nM
CC(=O)c1nn(CC(=O)N2[C@H]3C[C@]4(C[C@@H]24)CN(C)CCCCC=CCc2ccc(Br)nc2NC3=O)c2c(C)cc(-c3cnc(C)nc3)cc12 [Compound T-60] | < 1000 nM
CC(=O)c1nn(CC(=O)N2[C@H]3C[C@]4(C[C@@H]24)CN(C)CCCCC=CCc2ccc(Br)nc2NC3=O)c2c(CF)cc(-c3cnc(C)nc3)cc12 [Compound T-62] | < 1000 nM
CC(=O)c1nn(CC(=O)N2[C@H]3C[C@]4(C[C@@H]24)CN(C)CCCCC=CCc2ccc(Br)nc2NC3=O)c2ccc(-c3cnc(C)nc3)cc12 [Compound T-64] | < 1000 nM
CC(=O)c1nn(CC(=O)N2[C@H]3C[C@]4(C[C@@H]24)CN(C)CCCC=CCc2ccc(Br)nc2NC3=O)c2ccc(-c3cnc(C)nc3)cc12 [Compound T-65] | < 1000 nM
C=C1COCc2ccc(Br)nc2NC(=O)[C@@H]2C[C@]3(C[C@H]3N2C(=O)Cn2nc(C(C)=O)c3cc(-c4cnc(C)nc4)ccc32)Cn2cc1cn2 [Compound T-66] | < 1000 nM
CC(=O)c1nn(CC(=O)N2[C@H]3C[C@]4(C[C@@H]24)Cn2ccc(n2)/C=C\COCc2ccc(Br)nc2NC3=O)c2ccc(-c3cnc(C)nc3)cc12 [Compound T-69] | < 1000 nM
CC(=O)c1nn(CC(=O)N2[C@H]3C[C@]4(C[C@@H]24)Cn2ccc(n2)/C=C\COCc2ccc(Br)nc2NC3=O)c2cnc(-c3cnc(C)nc3)cc12 [Compound T-70] | < 1000 nM
CC(=O)c1nn(CC(=O)N2[C@H]3C[C@]4(C[C@@H]24)CN(C)CCCCCCCc2ccc(Br)nc2NC3=O)c2c(C)cc(-c3cnc(C)nc3)cc12 [Compound T-71] | < 1000 nM
CC(=O)c1nn(CC(=O)N2[C@H]3C[C@]4(C[C@@H]24)CN(C)CCCCCCc2ccc(Br)nc2NC3=O)c2c(C)cc(-c3cnc(C)nc3)cc12 [Compound T-72] | < 1000 nM
Cc1ncc(-c2cc(CF)c3c(c2)c(C=O)nn3CC(=O)N2[C@H]3C[C@]4(C[C@@H]24)CN(C)CCCCCCCc2ccc(Br)nc2NC3=O)cn1 [Compound T-74] | < 1000 nM
CC(=O)c1nn(CC(=O)N2[C@H]3C[C@]4(C[C@@H]24)CN(C)CCCCCCCc2ccc(Br)nc2NC3=O)c2cnc(-c3cnc(C)nc3)cc12 [Compound T-75] | < 1000 nM
